Data on eight compounds can be found in ChEMBL document CHEMBL1126211, “Arylamides of hydroxylated isoquinolines as protein-tyrosine kinase inhibitors” (Bioorg Med Chem Lett, 1992).

Tyrosine-protein kinase Lck, sequence (P06239 whole entry): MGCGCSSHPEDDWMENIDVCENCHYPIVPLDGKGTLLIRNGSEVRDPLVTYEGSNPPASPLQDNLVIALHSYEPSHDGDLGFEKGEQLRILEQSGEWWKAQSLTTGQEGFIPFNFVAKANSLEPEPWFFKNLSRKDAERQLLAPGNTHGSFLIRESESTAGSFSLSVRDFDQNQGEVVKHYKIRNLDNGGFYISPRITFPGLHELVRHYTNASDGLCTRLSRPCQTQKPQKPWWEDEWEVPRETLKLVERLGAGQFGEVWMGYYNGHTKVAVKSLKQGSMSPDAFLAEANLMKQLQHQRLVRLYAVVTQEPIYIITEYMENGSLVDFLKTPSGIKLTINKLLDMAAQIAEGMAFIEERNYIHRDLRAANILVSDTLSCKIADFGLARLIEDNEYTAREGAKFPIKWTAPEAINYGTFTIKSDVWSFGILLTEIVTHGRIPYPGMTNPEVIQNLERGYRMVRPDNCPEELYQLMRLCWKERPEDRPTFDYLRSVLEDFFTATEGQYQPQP

The first experiment addresses Tyrosine-protein kinase Lck (Homo sapiens, UniProt P06239). Nature of the experiment: Inhibition of p56 lck tyrosine kinase.
As usually defined, the IC50 is the concentration that gives 50% inhibition. Lower therefore signals inhibition by little substance. The compound `NC(=O)c1cc2cc(O)c(O)cc2cn1` showed an IC50 of 1900 µM.

As to `O=C(NCc1ccccc1)c1cc2cc(O)c(O)cc2cn1`, the half-inhibitory concentration (IC50) was > 1000 µM. `NC(=O)c1cc2ccc(O)c(O)c2cn1`: the midpoint of inhibition, the IC50, lay at 0.5 µM. This counts as sub-micromolar. Same read-out and setting: the same measure for `O=C(NCc1ccccc1)c1cc2ccc(O)c(O)c2cn1`: 1 µM; for `O=C(Nc1ccccc1)c1cc2ccc(O)c(O)c2cn1`: 1 µM. On the same count and under the same terms, the value for `O=C(NCCc1ccccc1)c1cc2ccc(O)c(O)c2cn1` was 40 µM; that for `O=C(Nc1ccccc1)c1cc2cc(O)c(O)cc2cn1` was 600 µM.

Another experiment deals with Epidermal growth factor receptor (Homo sapiens, UniProt P00533). Nature of the experiment: Inhibition of epidermal growth factor receptor (EGFR).
Epidermal growth factor receptor, sequence (P00533 whole entry): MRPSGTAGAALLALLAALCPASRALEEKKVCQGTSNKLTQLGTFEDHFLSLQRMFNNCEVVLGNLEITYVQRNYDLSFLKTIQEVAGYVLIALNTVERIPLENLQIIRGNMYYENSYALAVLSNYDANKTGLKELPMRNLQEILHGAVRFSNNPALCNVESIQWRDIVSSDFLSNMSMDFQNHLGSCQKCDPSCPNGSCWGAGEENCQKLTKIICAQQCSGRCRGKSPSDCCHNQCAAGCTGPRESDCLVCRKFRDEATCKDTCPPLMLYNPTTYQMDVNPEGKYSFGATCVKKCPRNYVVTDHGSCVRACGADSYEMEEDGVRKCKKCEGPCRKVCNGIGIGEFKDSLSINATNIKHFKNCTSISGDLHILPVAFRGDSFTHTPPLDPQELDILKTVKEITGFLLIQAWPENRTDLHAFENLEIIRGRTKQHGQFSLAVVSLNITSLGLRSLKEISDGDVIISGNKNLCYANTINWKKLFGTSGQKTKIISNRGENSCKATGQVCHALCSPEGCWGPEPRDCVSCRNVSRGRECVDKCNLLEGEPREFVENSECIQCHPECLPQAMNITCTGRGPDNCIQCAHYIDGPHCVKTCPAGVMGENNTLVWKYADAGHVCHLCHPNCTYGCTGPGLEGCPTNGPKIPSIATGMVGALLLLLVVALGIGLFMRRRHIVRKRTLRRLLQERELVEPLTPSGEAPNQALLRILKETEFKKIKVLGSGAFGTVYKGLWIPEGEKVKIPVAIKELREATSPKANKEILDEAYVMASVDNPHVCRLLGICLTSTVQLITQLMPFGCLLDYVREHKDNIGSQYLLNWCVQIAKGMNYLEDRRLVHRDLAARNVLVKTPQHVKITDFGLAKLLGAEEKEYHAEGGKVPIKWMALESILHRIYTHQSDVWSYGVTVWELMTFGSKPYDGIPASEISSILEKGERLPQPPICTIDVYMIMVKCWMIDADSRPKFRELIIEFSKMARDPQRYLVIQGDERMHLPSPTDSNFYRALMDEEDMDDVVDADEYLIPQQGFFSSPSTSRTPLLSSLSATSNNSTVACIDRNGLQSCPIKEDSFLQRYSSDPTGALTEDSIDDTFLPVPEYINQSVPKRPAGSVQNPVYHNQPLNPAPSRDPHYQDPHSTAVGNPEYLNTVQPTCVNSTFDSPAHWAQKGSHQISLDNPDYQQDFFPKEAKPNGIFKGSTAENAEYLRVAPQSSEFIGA
On to `NC(=O)c1cc2cc(O)c(O)cc2cn1`, for which the IC50 was > 100 µM. The same measure, in the same setting: the value for `N#C/C(=C\c1ccc(O)c(O)c1)C(N)=O` was 20 µM; that for `O=C(NCc1ccccc1)c1cc2cc(O)c(O)cc2cn1` was 3.1 µM. On the same count and under the same terms, the value for `NC(=O)c1cc2ccc(O)c(O)c2cn1` was > 100 µM. Still for that read-out and setting: the value for `O=C(NCc1ccccc1)c1cc2ccc(O)c(O)c2cn1` was 1.4 µM.

`O=C(Nc1ccccc1)c1cc2ccc(O)c(O)c2cn1` showed an IC50 of 7.7 µM.

Compound `O=C(NCCc1ccccc1)c1cc2ccc(O)c(O)c2cn1` had an IC50 of 1.4 µM. On the same count and under the same terms, the value for `O=C(Nc1ccccc1)c1cc2cc(O)c(O)cc2cn1` was 5.6 µM.
